Test results reported in patent US7357916B2, “Method for creating a uniform vascular wound in zebrafish or zebrafish larva” (priority 2002, dated 2008).
Like-named read-outs stand apart in the source and are kept apart here.

Key:
[1] = tested on: zebrafish larvae; experiment: Vascular occlusion by laser irradiation, time to occlusion (TTO); assay type: in vivo; conditions: normal TTO 17±5.0 seconds; for Time to occlusion (TTO), laser irradiation assays: embryos microinjected with morpholino, screened at 3 dpf
Method: For laser irradiation treatment, 1 to 5 larvae (3 mm) were placed in 250 μL of water and anesthetized with 10 μl of Tricaine solution (300 μmol/L, Sigma, MO). 250 μL of 1% low-melting agarose solution (at 40° C.) were added to the anesthetized larvae and each larva, along with approximately 100 μL of agarose solution, was positioned inside a viewing well that was formed by placing a plastic ring on a glass microscope slide. Before treatment, water was allowed to soak into the agarose blocks to wash out the anesthetic. Pulsed nitrogen laser light pumped through coumarin 440 dye (445 nm) (MicroPoint Laser system, Photonic Instruments Inc, IL) at seven pulses/second was delivered to larvae for five seconds through a 10× objective on a Nikon Optiphot microscope. The progress of occlusion was recorded using a Nikon CoolPix 995 CCD camera.
Larvae at 2 and 3 dpf were treated with warfarin as described (Hanumanthaiah et al., 2001, specifically incorporated herein by reference) for 24 hours. Larvae were rinsed in water and tested with either chemical or laser methods of vessel injury. Morpholinos (Discovery Genomics Inc.) were designed against 5′-UTR around the translational start site of zebrafish factor VII (Sheehan et al., 2001, specifically incorporated herein by reference or factor VIIi (Hanumanthaiah et al., 2002, specifically incorporated herein by reference). Sequences were as follows:
For each morpholino a working solution (2 mg/mL) was prepared as previously described (Nasevicius & Ekker, 2000, specifically incorporated herein by reference). Embryos were generated by in vitro fertilization as described (Westerfield, 2000, specifically incorporated herein by reference) and 9 nL of either morpholino solution were injected into the yolk of embryos at the single to four cell stages. Control embryos were microinjected with an equal volume of PBS. Embryos were maintained at 28° C. and screened at 3 dpf.

[2] = tested on: zebrafish larvae
Method: (§1) For screening studies, larvae at three to five days postfertilization (dpf) were placed in 500 μL of water and an equal volume of phenylhydrazine (40 mmol/L phenylhydrazine HCl (PHZ), Sigma, MO) or FeCl3 (40 mmol/L) solution was added. Each larva, along with 9 μL of solution, was placed in a 3 mm×1 mm×3 mm well of an acrylic viewing chamber (narrow wells limited the motion of larvae for better viewing). For recording purposes, larvae were also immobilized in agarose, as described below, and 100 μl of either FeCl3 or PHZ were layered on top of the agarose block. Vascular occlusion was recorded using an inverted Olympus microscope equipped with a Javelin MOS solid-state camera (Japan) connected to a VHS recorder.

[3] = tested on: zebrafish larvae; experiment: Vascular occlusion with phenylhydrazine, time to occlusion (TTO); assay type: in vivo
Method: as §1

[4] = tested on: erythrocytes; experiment: Annexin V binding, flow cytometry of blood cells from treated adult zebrafish; assay type: in vivo; conditions: 5 mmol/L for five minutes, FITC annexin V
Method: Adult zebrafish were placed in a 500 mL solution of phenylhydrazine (5 mmol/L phenylhydrazine HCl, pH 7.2 in 20 mmol/L Tris) or FeCl3 (5 mmol/L) for five minutes and then rinsed with de-ionized water. Two μL of blood were collected, as described (Jagadeeswaran et al., 2000a, specifically incorporated herein by reference), from control or treated zebrafish and blood cells were isolated by centrifugation of the blood sample at 800 g for two minutes, followed by removal of the supernatant. The cell pellet was washed once with 200 μL of PBS, centrifuged and resuspended in 200 μL of binding buffer (ApoAlert; Clontech, Calif.) followed by addition of 5 μL of FITC conjugated Annexin-V (Clontech, Calif.). Samples were incubated for ten minutes in dark at 25° C. and visualized ulsing a 20× UplanApo objective on an Olympus FV500 confocal microscope or processed by flow cytometry (Gregory & Jagadeeswaran, 2002).

[5] = larvae treated with warfarin for 24 hours

CC(=O)CC(c1ccccc1)c1c(O)c2ccccc2oc1=O (centres unmarked) [Warfarin, warfarin]
Time to occlusion (TTO), laser irradiation injury [1, 5]: > 1 min | Time to occlusion (TTO), FeCl3 injury ([2]; larvae treated with warfarin for 24 hours, normal TTO 6±2 minutes): > 10 min | Effect on TTO in phenylhydrazine induced vascular occlusion [3, 5]: did not affect TTO

[Cl][Fe]([Cl])[Cl] [FeCl3, ferric chloride]
Time to occlusion (TTO) induced by the agent, mean±standard deviation ([2]; wild type larvae at three dpf, n=1000): 6 ± 2 min

5′-GTCACTGACCTCAGCCTGTTCACAA-3′ (SEQ ID NO:2) (morpholino, further chemistry not given here) [FVIIias]
Time to occlusion (TTO), laser irradiation assays [1]: 9 ± 3 s

Cl.NNc1ccccc1 [phenylhydrazine, phenylhydrazine HCl]
Erythrocytes exhibiting externalization of PS [4]: approximately 18% | Time to occlusion (TTO) induced by the agent, mean±standard deviation ([3]; wild type larvae at four dpf, n=500): 10 ± 2.5 min

5′-CAAGCAGCAGACTC ATATTTACTGC-3′ (SEQ ID NO:1) (antisense CAAGCAGCAGACTCATATTTACTGC; all phosphorodiamidate morpholino (PMO)) [FVIIas]
Time to occlusion (TTO), laser irradiation assays [1]: 55 ± 9 s
